pKi: −log10 of the molar value.
Assays:
[1] = target: T1, membranes prepared from EA-Hy926 cells (integrin αvβ3) (Homo sapiens, UniProt P05106+P06756); assay: Competitive 125I-echistatin binding to membranes prepared from EA-Hy926 cells; conditions: competition with 125I-echistatin, 1 hour at 37° C., read-out: affinity (inhibition constant)
T1 construct: membranes from the human endothelial adenocarcinoma cell line EA-Hy926 were prepared; endogenous in cells; host or cells: EA-Hy926 (human endothelial cell line), purified membrane fraction
Procedure: The inhibition constant was measured using a previously-described membrane binding assay (Indrevoll et al, Bioorg & Med Chem Lett, 2006, 16, 6190-6193). In brief, membranes from the human endothelial adenocarcinoma cell line EA-Hy926 were prepared and the Kd calculated for the purified membrane fraction. A competitive binding assay was then established to measure inhibition constants. ^125I-echistatin (GE Healthcare; Code IM304) was used as the labelled ligand and cold echistatin as a reference standard. A total of sixteen dilutions of cold test compound (either cold echistatin or cold PET tracer) were prepared and mixed with a combination of ^125I-echistatin and membrane prior to incubation for 1 hour at 37° C. Following several washes, the bound material was harvested on a filter using a Skatron micro harvester. The filterspots were finally excised and counted in a Packard γ-counter.

rat livers = assay type: in vivo
Procedure: Outbred male Sprague Dawley rats (180-200 g; Charles River) were used in all bile duct ligation (BDL) and sham studies. After 6 days acclimatization rats were divided into 2 groups (BDL group and sham group). For the BDL animals, the abdomen was shaved and swabbed with betadine solution followed by 5 mg/kg carprofen subcutaneously (s.c.) and 5 mg/kg bupronorphine s.c. and under Isoflurane anaesthesia a mid-line laparotomy was performed and the common bile duct located. Bile duct was double ligated, the first ligation made between the junction of the hepatic ducts and the second above the entrance of the pancreatic ducts. The second group (sham animals) abdomen was shaved and swabbed with betadine solution followed by 5 mg/kg carprofen s.c. and 5 mg/kg bupronorphine s.c. Animals underwent sham surgery where bile duct was manipulated and a suture passed under the bile duct. Before closing 2-3 ml saline was administered into the peritoneum of each animal. […] Animals were closely monitored for the duration of the experiment.
For assessment of PET Tracer 1 in the BDL rat model, static PET images were acquired longitudinally (imaged at 60-90 minutes post-injection) at days 2, 5, 9, 15 and 30 post bile duct ligation surgery or sham surgery. […] Data was analysed using Asipro and Amide software. […]

alcoholic liver fibrosis = conditions: baboons; cited from earlier work

Compound	pKi [1]	difference in uptake between BDL liver and sham (rat livers; day 30 post surgery)	difference in liver retention between BDL and sham operated animals (rat livers; days 2-15 post surgery (p<0.05))	effect on alcoholic liver fibrosis (alcoholic liver fibrosis)
N=C(N)NCCC[C@@H]1NC(=O)[C@@H]2CSSC[C@H](NC(=O)[C@H](CC(=O)O)NC(=O)CNC1=O)C(=O)N[C@@H](Cc1ccccc1)C(=O)N[C@H](C(=O)NCCOCCOCCOCCNC(=O)COCC(N)=O)CSCC(=O)N[C@@H](CCCCNC(=O)COCC(=O)NCCOCCOCCOCCOCCOCCNC(=O)CO/N=C/c1ccc([18F])cc1)C(=O)N2 [PET Tracer 1]	8.00 to 8.30	no significant difference	significant difference	–
Polyenephosphatidylcholine [Polyenephosphatidylcholine (PPC)]	–	–	–	prevented alcoholic liver fibrosis

— patent US20120100072A1, “PET IMAGING OF FIBROGENESIS” (GE HEALTHCARE LIMITED, priority 2009, published 2012)
